In ChEMBL document CHEMBL4619820, “Development of Novel AKR1C3 Inhibitors as New Potential Treatment for Castration-Resistant Prostate Cancer” (J Med Chem, 2020):
Numbering of substitutions follows the chain as printed. Activity calls are given as the source filed them. No cut-off for these calls is given here.

Tests used:
[1] = target: T1, Carbonyl reductase [NADPH] 1 (Homo sapiens, UniProt P16152); test: Inhibition of CBR1 (unknown origin)
T1 sequence (P16152 whole entry): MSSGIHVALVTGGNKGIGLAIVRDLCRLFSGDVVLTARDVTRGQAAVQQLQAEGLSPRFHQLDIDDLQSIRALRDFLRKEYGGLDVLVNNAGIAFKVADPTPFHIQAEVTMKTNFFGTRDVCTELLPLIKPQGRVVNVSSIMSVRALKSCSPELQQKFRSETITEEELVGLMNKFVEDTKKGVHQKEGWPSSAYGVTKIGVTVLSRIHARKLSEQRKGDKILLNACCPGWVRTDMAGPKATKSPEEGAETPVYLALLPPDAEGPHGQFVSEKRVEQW

[2] = target: T2, Aldo-keto reductase family 1 member C3 (Homo sapiens, UniProt P42330); test: Inhibition of recombinant AKR1C3 (unknown origin) assessed as reduction in S-tetralol-induced dehydrogenase activity by measuring NADPH level
T2 sequence (P42330 whole entry): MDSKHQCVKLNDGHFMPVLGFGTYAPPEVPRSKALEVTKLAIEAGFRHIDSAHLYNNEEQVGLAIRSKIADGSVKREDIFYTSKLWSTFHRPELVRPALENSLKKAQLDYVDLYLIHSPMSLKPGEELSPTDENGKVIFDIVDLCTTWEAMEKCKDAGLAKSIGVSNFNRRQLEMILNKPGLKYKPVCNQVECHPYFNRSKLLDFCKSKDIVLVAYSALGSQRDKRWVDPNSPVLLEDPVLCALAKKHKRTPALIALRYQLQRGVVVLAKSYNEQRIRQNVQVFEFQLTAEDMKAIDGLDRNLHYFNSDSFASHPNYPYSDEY

[3] = target: T3, Aldo-keto reductase family 1 member C1 (Homo sapiens, UniProt Q04828); test: Inhibition of recombinant AKR1C1 (unknown origin) assessed as reduction in S-tetralol-induced dehydrogenase activity by measuring NADPH level
T3 sequence (Q04828 whole entry): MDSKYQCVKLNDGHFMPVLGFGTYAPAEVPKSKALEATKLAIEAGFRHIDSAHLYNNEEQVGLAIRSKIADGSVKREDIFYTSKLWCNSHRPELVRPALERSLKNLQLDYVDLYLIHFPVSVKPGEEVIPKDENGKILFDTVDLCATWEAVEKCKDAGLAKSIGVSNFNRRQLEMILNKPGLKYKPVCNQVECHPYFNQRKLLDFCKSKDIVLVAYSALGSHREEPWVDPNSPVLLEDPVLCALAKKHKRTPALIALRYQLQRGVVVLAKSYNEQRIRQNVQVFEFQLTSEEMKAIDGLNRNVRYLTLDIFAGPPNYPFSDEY

[4] = target: T4, Aldo-keto reductase family 1 member C2 (Homo sapiens, UniProt P52895); test: Inhibition of recombinant AKR1C2 (unknown origin) assessed as reduction in S-tetralol-induced dehydrogenase activity by measuring NADPH level
T4 sequence (P52895 whole entry): T3 sequence (Q04828 whole entry) with T38V, R47H, L54V, C87S, V151M, R170H, Q172L

[5] = target: T5, Aldo-keto reductase family 1 member C4 (Homo sapiens, UniProt P17516); test: Inhibition of recombinant AKR1C4 (unknown origin) assessed as reduction in S-tetralol-induced dehydrogenase activity by measuring NADPH level
T5 sequence (P17516 whole entry): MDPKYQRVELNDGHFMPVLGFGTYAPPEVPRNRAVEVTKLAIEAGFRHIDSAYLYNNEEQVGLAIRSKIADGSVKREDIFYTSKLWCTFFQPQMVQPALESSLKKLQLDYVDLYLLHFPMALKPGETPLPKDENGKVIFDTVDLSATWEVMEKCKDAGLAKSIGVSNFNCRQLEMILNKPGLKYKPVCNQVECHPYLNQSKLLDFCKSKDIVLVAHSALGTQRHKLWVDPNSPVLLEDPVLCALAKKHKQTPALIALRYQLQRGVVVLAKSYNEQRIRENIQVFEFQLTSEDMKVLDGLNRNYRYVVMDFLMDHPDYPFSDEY

[6] = species on record: Homo sapiens; test: Ratio of IC50 for inhibition of recombinant AKR1C1 (unknown origin) inhibition of recombinant AKR1C3 (unknown origin)
[7] = species on record: Homo sapiens; test: Ratio of IC50 for inhibition of recombinant AKR1C2 (unknown origin) inhibition of recombinant AKR1C3 (unknown origin)
[8] = species on record: Homo sapiens; test: Ratio of IC50 for inhibition of recombinant AKR1C4 (unknown origin) inhibition of recombinant AKR1C3 (unknown origin)
[9] = species on record: Homo sapiens; test: Ratio of IC50 for inhibition of CBR1 (unknown origin) inhibition of recombinant AKR1C3 (unknown origin)
[10] = target: T6, Androgen receptor (Homo sapiens) (UniProt P10275); test: Agonistic activity at AR in human 22Rv1 cells assessed as effect on cell number at 1 nM by CCK8 assay; assay type: cell-based; conditions: CWR22R
T6 sequence (whole entry): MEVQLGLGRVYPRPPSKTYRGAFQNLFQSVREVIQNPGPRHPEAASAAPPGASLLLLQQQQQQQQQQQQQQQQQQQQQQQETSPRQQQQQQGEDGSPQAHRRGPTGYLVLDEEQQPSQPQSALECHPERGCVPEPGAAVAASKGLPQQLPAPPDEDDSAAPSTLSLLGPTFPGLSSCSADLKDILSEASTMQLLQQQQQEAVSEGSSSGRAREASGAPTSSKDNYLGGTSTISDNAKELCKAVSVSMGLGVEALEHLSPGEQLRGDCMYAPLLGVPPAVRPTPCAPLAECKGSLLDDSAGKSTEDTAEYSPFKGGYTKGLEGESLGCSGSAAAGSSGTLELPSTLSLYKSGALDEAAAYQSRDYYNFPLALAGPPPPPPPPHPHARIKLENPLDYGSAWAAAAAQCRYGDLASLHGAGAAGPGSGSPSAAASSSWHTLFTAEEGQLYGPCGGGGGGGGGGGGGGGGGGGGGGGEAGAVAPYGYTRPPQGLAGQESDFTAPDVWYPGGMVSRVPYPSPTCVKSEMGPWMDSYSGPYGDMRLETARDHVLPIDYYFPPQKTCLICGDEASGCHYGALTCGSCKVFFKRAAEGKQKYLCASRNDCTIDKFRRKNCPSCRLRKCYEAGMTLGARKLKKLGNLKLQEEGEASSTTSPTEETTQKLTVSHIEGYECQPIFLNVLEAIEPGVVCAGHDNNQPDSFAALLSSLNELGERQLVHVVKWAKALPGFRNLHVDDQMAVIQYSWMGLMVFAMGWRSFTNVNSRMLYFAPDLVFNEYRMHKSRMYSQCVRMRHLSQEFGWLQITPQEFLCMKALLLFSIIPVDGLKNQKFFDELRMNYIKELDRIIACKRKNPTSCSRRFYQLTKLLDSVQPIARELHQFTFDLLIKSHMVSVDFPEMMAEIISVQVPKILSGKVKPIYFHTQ

How did the IC50 [1] turn out when N=c1oc2c(O)cccc2cc1C(=O)Nc1ccc(F)cc1 was run?
Its IC50 is 440 nM.

What about the IC50 [2] of the same compound?
The IC50 was 25 nM.

And the IC50 [3]?
The IC50 was 6000 nM.

What about the IC50 [4] of the same compound?
Its IC50 is greater than 10000 nM.

What about the IC50 [5] of the same compound?
The IC50 was greater than 10000 nM.

And the Ratio IC50 [6]?
The Ratio IC50 was 240.

And the Ratio IC50 [7]?
The Ratio IC50 was greater than 400.

What about the Ratio IC50 [8] of the same compound?
The Ratio IC50 was greater than 400.

What about the Ratio IC50 [9] of the same compound?
The Ratio IC50 was 18.

What about the Activity [10] of the same compound?
The Activity was “inactive”.

Which IC50 [1] does the source give for CCc1cccc(NC(=O)c2cc3cccc(O)c3oc2=N)c1 here?
The IC50 was 250 nM.

And the IC50 [2]?
The IC50 was 34 nM.

What about the IC50 [3] of the same compound?
The IC50 was greater than 10000 nM.

What about the IC50 [4] of the same compound?
Its IC50 is greater than 10000 nM.

What about the IC50 [5] of the same compound?
Its IC50 is greater than 10000 nM.

And the Ratio IC50 [6]?
Its Ratio IC50 is greater than 300.

And the Ratio IC50 [7]?
Its Ratio IC50 is greater than 300.

And the Ratio IC50 [8]?
The Ratio IC50 was greater than 300.

What about the Ratio IC50 [9] of the same compound?
The Ratio IC50 was 7.

What about the Activity [10] of the same compound?
The Activity was “inactive”.

Which results are given for Cc1ccc(NC(=O)c2cc3cccc(O)c3oc2=N)cc1?
IC50 [1]: 270 nM; IC50 [2]: 27 nM; IC50 [3]: > 10000 nM; IC50 [4]: > 10000 nM; IC50 [5]: > 10000 nM; Ratio IC50 [6]: > 370; Ratio IC50 [7]: > 370; Ratio IC50 [8]: > 370; Ratio IC50 [9]: 10; Activity [10]: inactive
